Measured values reported in ChEMBL document CHEMBL1147087, “An antidepressant that extends lifespan in adult Caenorhabditis elegans” (Nature, 2007).

How the values were obtained:
Type in all cases: functional
Caenorhabditis elegans [1] = experiment: Effect on life span of Caenorhabditis elegans at 50 uM
Caenorhabditis elegans [2] = experiment: Effect on life span of Caenorhabditis elegans at 100 uM
Caenorhabditis elegans [3] = experiment: Effect on life span of Caenorhabditis elegans at 200 uM
Caenorhabditis elegans [4] = experiment: Increase in life span of Caenorhabditis elegans
Caenorhabditis elegans [5] = experiment: Effect on life span of Caenorhabditis elegans N2 treated on day 5 at 10 uM
Caenorhabditis elegans [6] = experiment: Effect on life span of Caenorhabditis elegans ser4 mutant at 10 uM
Caenorhabditis elegans [7] = experiment: Effect on life span of Caenorhabditis elegans N2 at 10 uM
Caenorhabditis elegans [8] = experiment: Effect on life span of Caenorhabditis elegans daf16 mutant at 10 uM
Caenorhabditis elegans [9] = experiment: Effect on life span of Caenorhabditis elegans mod1 mutant at 10 uM
Caenorhabditis elegans [10] = experiment: Effect on life span of Caenorhabditis elegans at 10 uM
Caenorhabditis elegans [11] = experiment: Effect on life span of Caenorhabditis elegans tph1 mutant at 10 uM
Caenorhabditis elegans [12] = experiment: Effect on life span of Caenorhabditis elegans clk1 mutant at 10 uM
Caenorhabditis elegans [13] = experiment: Effect on life span of Caenorhabditis elegans eat2 mutant at 10 uM
Caenorhabditis elegans [14] = experiment: Effect on life span of Caenorhabditis elegans ser7 mutant at 10 uM
Caenorhabditis elegans [15] = experiment: Effect on life span of Caenorhabditis elegans ser3 mutant at 10 uM
Caenorhabditis elegans [16] = experiment: Effect on life span of Caenorhabditis elegans mod5 mutant at 10 uM
Caenorhabditis elegans [17] = experiment: Effect on life span of Caenorhabditis elegans daf2 mutant at 10 uM
Caenorhabditis elegans [18] = experiment: Effect on life span of Caenorhabditis elegans ser3 mutant at 250 uM
Caenorhabditis elegans [19] = experiment: Effect on life span of Caenorhabditis elegans ser1 mutant at 10 uM
Caenorhabditis elegans [20] = experiment: Effect on life span of Caenorhabditis elegans ser2 mutant at 10 uM
Caenorhabditis elegans [21] = experiment: Effect on life span of Caenorhabditis elegans ser7(tm1325) mutant at 50 uM
Caenorhabditis elegans [22] = experiment: Effect on life span of diet restricted Caenorhabditis elegans N2 at 50 uM
Caenorhabditis elegans [23] = experiment: Effect on life span of Caenorhabditis elegans daf16(mu86) mutant at 50 uM
Caenorhabditis elegans [24] = experiment: (§1) Effect on life span of Caenorhabditis elegans N2 treated on day 5 at 50 uM
Caenorhabditis elegans [25] = experiment: Effect on life span of Caenorhabditis elegans N2 treated on day 1 at 50 uM
Caenorhabditis elegans [26] = experiment: Effect on life span of Caenorhabditis elegans eat2(ad1116) mutant at 50 uM
Caenorhabditis elegans [27] = experiment: Effect on life span of Caenorhabditis elegans ser3(ok2007) mutant at 50 uM
Caenorhabditis elegans [28] = experiment: Effect on life span of Caenorhabditis elegans ser4(ok512) mutant at 50 uM
Caenorhabditis elegans [29] = experiment: Effect on life span of Caenorhabditis elegans at 250 uM
Caenorhabditis elegans [30] = experiment: Effect on life span of Caenorhabditis elegans N2 treated on day 1 at 2 uM
Caenorhabditis elegans [31] = experiment: Effect on life span of Caenorhabditis elegans ser1 mutant at 50 uM
Caenorhabditis elegans [32] = experiment: Effect on life span of Caenorhabditis elegans mod5(n3314) mutant at 50 uM
Caenorhabditis elegans [33] = experiment: Effect on life span of Caenorhabditis elegans ser4 mutant at 250 uM
Caenorhabditis elegans [34] = experiment: Effect on life span of Caenorhabditis elegans tph1 mutant at 250 uM
Caenorhabditis elegans [35] = experiment: Effect on life span of Caenorhabditis elegans ser1(ok345) mutant at 50 uM
Caenorhabditis elegans [36] = experiment: as §1; remark: listed apart in the source
Caenorhabditis elegans [37] = experiment: Effect on life span of Caenorhabditis elegans eat2 mutant at 50 uM
Caenorhabditis elegans [38] = experiment: Effect on life span of Caenorhabditis elegans N2 from L1 stage at 200 uM
Caenorhabditis elegans [39] = experiment: Effect on life span of Caenorhabditis elegans N2 treated on day 1 at 10 uM
Caenorhabditis elegans [40] = experiment: Effect on life span of Caenorhabditis elegans ser3 mutant at 2 uM
Caenorhabditis elegans [41] = experiment: Effect on life span of Caenorhabditis elegans ser2(pk1357) mutant at 50 uM
Caenorhabditis elegans [42] = experiment: Effect on life span of Caenorhabditis elegans mod1 mutant at 50 uM
Caenorhabditis elegans [43] = experiment: Effect on life span of Caenorhabditis elegans ser3 mutant at 50 uM
Caenorhabditis elegans [44] = experiment: Effect on life span of Caenorhabditis elegans N2 at 2 uM
Caenorhabditis elegans [45] = experiment: Effect on life span of Caenorhabditis elegans N2 from L1 stage at 50 uM
Caenorhabditis elegans [46] = experiment: Effect on life span of Caenorhabditis elegans mod1(ok103) mutant at 50 uM
Caenorhabditis elegans [47] = experiment: Effect on life span of Caenorhabditis elegans daf16 mutant at 50 uM
Caenorhabditis elegans [48] = experiment: Effect on life span of Caenorhabditis elegans ser4 mutant at 2 uM
Caenorhabditis elegans [49] = experiment: Effect on life span of Caenorhabditis elegans N2 at 250 uM
Caenorhabditis elegans [50] = experiment: Effect on life span of Caenorhabditis elegans clk1([…]) mutant at 50 uM
Caenorhabditis elegans [51] = experiment: Effect on life span of Caenorhabditis elegans ser7 mutant at 50 uM
Caenorhabditis elegans [52] = experiment: Effect on life span of Caenorhabditis elegans N2 treated on day 1 at 200 uM
Caenorhabditis elegans [53] = experiment: Effect on life span of Caenorhabditis elegans ser3(ad1774) mutant at 50 uM
Caenorhabditis elegans [54] = experiment: Effect on life span of Caenorhabditis elegans daf2(e1370) mutant at 50 uM
Caenorhabditis elegans [55] = experiment: Effect on life span of Caenorhabditis elegans mod5 mutant at 50 uM
Caenorhabditis elegans [56] = experiment: Effect on life span of Caenorhabditis elegans ser4 mutant at 50 uM
Caenorhabditis elegans [57] = experiment: Effect on life span of Caenorhabditis elegans daf2 mutant at 50 uM
Caenorhabditis elegans [58] = experiment: Effect on life span of Caenorhabditis elegans N2 from L1 stage at 100 uM
Caenorhabditis elegans [59] = experiment: Effect on life span of Caenorhabditis elegans N2 at 50 uM
Caenorhabditis elegans [60] = experiment: Effect on life span of Caenorhabditis elegans tph(mg280) mutant at 50 uM
Caenorhabditis elegans [61] = experiment: Effect on life span of Caenorhabditis elegans clk1 mutant at 50 uM
Caenorhabditis elegans [62] = experiment: Effect on life span of Caenorhabditis elegans ser2 mutant at 50 uM
Caenorhabditis elegans [63] = experiment: Effect on life span of Caenorhabditis elegans N2 from L1 stage at 10 uM
Caenorhabditis elegans [64] = experiment: Effect on life span of Caenorhabditis elegans N2 treated on day 1 at 100 uM
Caenorhabditis elegans [65] = experiment: Effect on life span of Caenorhabditis elegans tph1 mutant at 50 uM
Caenorhabditis elegans [66] = experiment: Effect on life span of Caenorhabditis elegans N2 from L1 stage at 2 uM
Caenorhabditis elegans [67] = experiment: Effect on life span of Caenorhabditis elegans at 1000 uM
Caenorhabditis elegans [68] = experiment: Effect on life span of Caenorhabditis elegans at 3000 uM

## COc1ccccc1N1CCN(CCCCN2C(=O)CCC2=O)CC1
Caenorhabditis elegans [1]
  Activity: 6%
Caenorhabditis elegans [2]
  Activity: -4%

## c1cc2c(c(N3CCNCC3)c1)OCCO2 [ELTOPRAZINE]
Caenorhabditis elegans [1]
  Activity: -12%
Caenorhabditis elegans [2]
  Activity: -8%

## CN1CCN2c3ncccc3Cc3ccccc3C2C1 (centres undefined) [MIRTAZAPINE]
Caenorhabditis elegans [1]
  Activity: 20%
Caenorhabditis elegans [2]
  Activity: 5%

## CNCCC(Oc1ccc(C(F)(F)F)cc1)c1ccccc1 (centres undefined) [FLUOXETINE]
Caenorhabditis elegans [1]
  Activity: -12%
Caenorhabditis elegans [3]
  Activity: -48%
Caenorhabditis elegans [2]
  Activity: -11%

## O=C1CC(c2cccc([N+](=O)[O-])c2)CC2=C1C(c1ccccc1)Nc1ccccc1N2 (centres undefined)
Caenorhabditis elegans [4]
  Activity: 20%

## Clc1cccc(N2CCNCC2)c1 [CHLOROPHENYLPIPERAZINE]
Caenorhabditis elegans [1]
  Activity: -26%

## CSc1ccc2c(c1)C(N1CCN(C)CC1)Cc1ccccc1S2 (centres undefined) [METITEPINE]
Caenorhabditis elegans [5]
  Activity: -1%
Caenorhabditis elegans [6]
  Activity: 8%
Caenorhabditis elegans [7]
  Activity: 25%
Caenorhabditis elegans [8]
  Activity: 10%
Caenorhabditis elegans [9]
  Activity: 21%
Caenorhabditis elegans [10]
  Activity: 25%
Caenorhabditis elegans [11]
  Activity: -2%
Caenorhabditis elegans [12]
  Activity: 10%
Caenorhabditis elegans [13]
  Activity: -3%
Caenorhabditis elegans [14]
  Activity: 40%
Caenorhabditis elegans [15]
  Activity: -9%
Caenorhabditis elegans [16]
  Activity: 8%
Caenorhabditis elegans [17]
  Activity: 21%
Caenorhabditis elegans [18]
  Activity: -1%
Caenorhabditis elegans [19]
  Activity: 38%
Caenorhabditis elegans [20]
  Activity: 17%

## CN1CCC(=C2c3ccccc3C=Cc3ccccc32)CC1 [CYPROHEPTADINE]
Caenorhabditis elegans [1]
  Activity: 19%
Caenorhabditis elegans [21]
  Activity: 54%
Caenorhabditis elegans [2]
  Activity: 17%
Caenorhabditis elegans [22]
  Activity: 9%
Caenorhabditis elegans [23]
  Activity: 6%
Caenorhabditis elegans [24]
  Activity: 7%
Caenorhabditis elegans [25]
  Activity: 33%
Caenorhabditis elegans [26]
  Activity: 4%
Caenorhabditis elegans [27]
  Activity: -4%
Caenorhabditis elegans [28]
  Activity: 16%

## CCCN(CCC)C1CCc2cccc(O)c2C1 (centres undefined) [8-OH-DPAT]
Caenorhabditis elegans [1]
  Activity: 3%
Caenorhabditis elegans [3]
  Activity: -13%
Caenorhabditis elegans [2]
  Activity: 8%

## CN(C)CCCN1c2ccccc2CCc2ccccc21 [IMIPRAMINE]
Caenorhabditis elegans [1]
  Activity: -1%
Caenorhabditis elegans [3]
  Activity: -2%
Caenorhabditis elegans [10]
  Activity: -3%

## COc1ccccc1N1CCN(CCCCN2C(=O)c3ccccc3C2=O)CC1 [NAN-190]
Caenorhabditis elegans [1]
  Activity: -11%
Caenorhabditis elegans [2]
  Activity: 2%

## O=C1c2ccccc2S(=O)(=O)N1CCCCN1CCN(c2ncccn2)CC1 [IPSAPIRONE]
Caenorhabditis elegans [1]
  Activity: 3%
Caenorhabditis elegans [2]
  Activity: 0%

## CNCCCN1c2ccccc2CCc2ccccc21 [DESIPRAMINE]
Caenorhabditis elegans [1]
  Activity: -2%
Caenorhabditis elegans [3]
  Activity: 3%
Caenorhabditis elegans [10]
  Activity: -6%

## N[C@@H](Cc1ccccc1)C(=O)O [PHENYLALANINE]
Caenorhabditis elegans [1]
  Activity: -1%
Caenorhabditis elegans [3]
  Activity: -2%

## Fc1ccc([C@@H]2CCNC[C@H]2COc2ccc3c(c2)OCO3)cc1 [PAROXETINE]
Caenorhabditis elegans [1]
  Activity: -42%
Caenorhabditis elegans [29]
  Activity: -76%

## CN[C@H]1CC[C@@H](c2ccc(Cl)c(Cl)c2)c2ccccc21 [SERTRALINE]
Caenorhabditis elegans [1]
  Activity: -76%
Caenorhabditis elegans [29]
  Activity: -80%

## CN1CCN2c3ccccc3Cc3ccccc3C2C1 (centres undefined) [MIANSERIN]
Caenorhabditis elegans [30]
  Activity: 13%
Caenorhabditis elegans [31]
  Activity: 53%
Caenorhabditis elegans [32]
  Activity: 2%
Caenorhabditis elegans [1]
  Activity: 25%
Caenorhabditis elegans [7]
  Activity: 31%
Caenorhabditis elegans [33]
  Activity: -20%
Caenorhabditis elegans [34]
  Activity: -1%
Caenorhabditis elegans [21]
  Activity: 60%
Caenorhabditis elegans [35]
  Activity: 38%
Caenorhabditis elegans [36]
  Activity: 1%
Caenorhabditis elegans [37]
  Activity: -4%
Caenorhabditis elegans [38]
  Activity: 5%
Caenorhabditis elegans [39]
  Activity: 18%
Caenorhabditis elegans [22]
  Activity: 4%
Caenorhabditis elegans [40]
  Activity: -3%
Caenorhabditis elegans [41]
  Activity: 19%
Caenorhabditis elegans [23]
  Activity: 14%
Caenorhabditis elegans [24]
  Activity: 6%
Caenorhabditis elegans [42]
  Activity: 29%
Caenorhabditis elegans [43]
  Activity: -5%
Caenorhabditis elegans [44]
  Activity: 19%
Caenorhabditis elegans [45]
  Activity: 10%
Caenorhabditis elegans [46]
  Activity: 25%
Caenorhabditis elegans [47]
  Activity: 12%
Caenorhabditis elegans [48]
  Activity: 6%
Caenorhabditis elegans [25]
  Activity: 31%
Caenorhabditis elegans [49]
  Activity: -17%
Caenorhabditis elegans [50]
  Activity: 3%
Caenorhabditis elegans [51]
  Activity: 50%
Caenorhabditis elegans [26]
  Activity: 2%
Caenorhabditis elegans [52]
  Activity: -4%
Caenorhabditis elegans [27]
  Activity: -2%
Caenorhabditis elegans [53]
  Activity: 3%
Caenorhabditis elegans [54]
  Activity: 11%
Caenorhabditis elegans [55]
  Activity: 14%
Caenorhabditis elegans [15]
  Activity: -2%
Caenorhabditis elegans [56]
  Activity: 7%
Caenorhabditis elegans [57]
  Activity: 16%
Caenorhabditis elegans [58]
  Activity: -4%
Caenorhabditis elegans [59]
  Activity: 48%
Caenorhabditis elegans [18]
  Activity: -1%
Caenorhabditis elegans [60]
  Activity: 0%
Caenorhabditis elegans [61]
  Activity: 10%
Caenorhabditis elegans [62]
  Activity: 19%
Caenorhabditis elegans [63]
  Activity: 9%
Caenorhabditis elegans [64]
  Activity: 13%
Caenorhabditis elegans [65]
  Activity: 10%
Caenorhabditis elegans [28]
  Activity: 7%
Caenorhabditis elegans [66]
  Activity: 8%

## CN(C)Cc1c[nH]c2ccccc12 [GRAMINE]
Caenorhabditis elegans [1]
  Activity: 2%
Caenorhabditis elegans [10]
  Activity: 3%

## NCCc1c[nH]c2ccc(O)cc12 [SEROTONIN]
Caenorhabditis elegans [67]
  Activity: -8%
Caenorhabditis elegans [68]
  Activity: -6%
